Measured values taken from patent US20220105183A1, “MICRO-NANO STRUCTURE FORMED BY SELF-ASSEMBLING ORGANIC SMALL MOLECULE COMPOUND AND USE THEREOF” (Qingdao University of Science and Technology, priority 2018, published 2022).

Columns and labels:
4T1 cells [1] = test: Photoacoustic imaging in subcutaneous metastasis model mice; type: in vivo, nude mice; settings: 200 μL (300 μmoL) tail vein, multispectral photoacoustic tomography
Protocol: The left side of 6-week-old female nude mice was injected subcutaneously with […] 4T1 cells to grow the tumor volume to 60 mm^3.
200 μL II-1 (300 μmoL) was injected into the mice of the experimental group through the tail vein. Monitored with multispectral photoacoustic tomography at different times. […] With the increase of time, until 24 hours, there was a photoacoustic signal at the tumor site.

[2] = Photothermal stability, repeated 808 nm irradiation and cooling; type: physicochemical; settings: sample No. 3, 20 μM, 808 nm laser 9 minutes, natural cooling, 5 times
Protocol: We selected sample No. 3 to test the photothermal stability experiment. As shown in the right figure of FIG. 8, sample No. 3 was irradiated with 808 nm laser for 9 minutes and then the temperature increased from room temperature 30° C. to 62° C., and then allowed to naturally cool down to room temperature, and irradiated with 808 nm laser again for 9 minutes, then naturally cooled down, and repeated for 5 times. […] After 9 minutes of irradiation, the temperature was raised by […], and then returned to room temperature.

4T1 cells [3] = test: Photothermal imaging and photothermal treatment in subcutaneous metastasis model mice; type: in vivo, nude mice
Protocol: In the experimental group, 200 μL of II-1 (300 μmoL) was injected into the mouse through the tail vein, and the tumor site of the mouse was irradiated with an 808 nm laser for 10 minutes, while taking photos with a photothermal imaging instrument.
The nude mice were divided into 4 groups. In the first group, 200 μL of II-1 was injected into the mouse through the tail vein, and the tumor site of the mouse was irradiated with an 808 nm laser for 5 minutes. In the second group, 200 μL of II-1 (300 μmol) was injected, no laser irradiation. In the third group, saline was injected and laser irradiated for 5 minutes. In the fourth group, saline was injected, no laser irradiation. The tumor volume of each group of mice was measured daily with a vernier caliper, and the recording was continued for 30 days.

[4] = DLS particle size / self-assembly of the compounds in aqueous solution; type: physicochemical; settings: micro-nano structure, 20 μM working solution in deionized water
Protocol: The term “particle size” refers to the size of particles, also known as “granularity” or “diameter”. When a certain physical characteristic or physical behavior of the measured particle is closest to a homogeneous sphere (or combination) of a certain diameter, the diameter (or combination) of the sphere is taken as the equivalent particle size of the measured particle. The particle size parameter of the micro-nano structure of the present invention is measured by the principle of dynamic light scattering (DLS), specifically measured by a laser particle size analyzer.
Taking the self-assembled micro-nano structure of Compound II-1 as an example, II-1 was dissolved in DMSO (also can be an organic solvent such as ethanol) to prepare a 2 mM storage solution, and a small amount of storage solution was added to deionized water to prepare 20 μM working solution. Took 10 μL and dropped it on copper mesh, observed and analyzed under transmission electron microscope (TEM), cryo-transmission electron microscope. Took 10 μL and dropped it on mica plate, observed and analyzed under atomic force microscope (AFM). In FIGS. 5, A, B, C and D were TEM photographs, cryo-transmission electron microscope photographs, AFM photographs, and AFM analysis data, respectively. According to the photographs and data, II-1 was self-assembled into nanosheets with a diameter of 40-70 nm and a thickness of 3.7-3.9 nm. […]
Among them, the particle size test results of II-12 to II-15 in aqueous solution are shown in FIG. 6, and the results of dynamic light scattering DLS of II-16 to 1-18 are shown in FIG. 7).

[5] = Photothermal effect in vitro under 808 nm laser irradiation; type: physicochemical; settings: for light-to-heat conversion efficiency: 808 nm laser; for temperature raised by / temperature reached: 808 nm laser 5 minutes; for temperature reached: from room temperature 30° C.
Protocol: A total of 4 groups of samples, 3 mL was taken and added to a cuvette respectively, and the lid was sealed.
The sample No. 2 was 10 μM II-1, and the specific preparation method is 3 mL deionized water plus 15 μL II-1 stock solution (2 mM, dissolved in DMSO);
The sample No. 3 was 20 μM II-1, and the specific preparation method was that 3 mL deionized water was added 30 μL II-1 stock solution (2 mM, dissolved in DMSO);
The sample No. 4 was 40 μM II-1, and the specific preparation method was that 3 mL deionized water was added 60 μL II-1 stock solution (2 mM, dissolved in DMSO).
Each sample was irradiated with an 808 nm laser for 5 minutes, and the temperature data was recorded every 5 seconds with a thermal imager, and the temperature corresponding to the time was plotted in origin, as shown in the left figure of FIG. 8. […] The temperature of sample No. 2 increased from room temperature 30° C. to 54° C., and the temperature was raised by 24° C. The temperature of sample No. 3 increased from room temperature 30° C. to 62° C., and the temperature was raised by 32° C. The temperature of sample No. 4 increased from room temperature 30° C. to 77° C., and the temperature was raised by 47° C.
Using a method similar to Example 8, 10 μM, 20 μM and 40 μM samples of II-16, II-17 and II-18 were prepared, respectively, they were irradiated under an 808 nm (2.6 W/cm-2) laser for 10 minutes. 40 μM II-16 to 18 samples can rise by 40° C., 36° C. and 18° C. respectively within 10 minutes under laser irradiation.
Using a method similar to that in Example 8, three samples of 20 μM of 1-16, II-17 and II-18 in water were irradiated with 808 nm (2.6 W/cm-2) laser for 10 minutes, and the light-to-heat conversion efficiency calculation result thereof were shown in FIG. 10. […] And II-18 not only has poor light-heat effect, but also has low light-heat conversion efficiency, only 12.9%.

[6] = Group 1: 200 μL tail vein, 808 nm laser 5 minutes
[7] = experimental group, 20 days after the experiment
[8] = sample No. 2, 10 μM in deionized water
[9] = sample No. 3, 20 μM in deionized water
[10] = sample No. 4, 40 μM in deionized water

SMILES: CCN1C(=CC=C2CCCC(C=CC3=C(C#N)C(=C(C#N)C#N)OC3(C)C)=C2Cl)C(C)(C)c2ccccc21 [II-1]
- time at which a clear photoacoustic signal was found at the tumor site (4T1 cells [1]): 4 h
- time until which there was a photoacoustic signal at the tumor site (4T1 cells [1]): 24 h
- temperature raised by, every time in 5 repeated irradiations [2]: 25 °C
- temperature reached every time in 5 repeated irradiations [2]: at least 55 °C
- temperature of tumor site under laser irradiation (4T1 cells [3]; 200 μL (300 μmoL) tail vein, 808 nm laser 10 minutes): 60 °C
- day on which the tumor ulcer had completely healed (4T1 cells [3]; [6]): 16 days
- tumor after photothermal treatment (4T1 cells [3]; [6]): the tumor disappeared after laser irradiation, and there was no recurrence within 20 days
- body weight (4T1 cells [3]; experimental group and control group): no abnormal change in the body weight
- H&E staining of lung and liver (4T1 cells [3]; [7]): no obvious damage to the lungs and liver
- H&E staining of tumor (4T1 cells [3]; [7]): the tumor cells had undergone apoptosis
- growth of tumor volume (4T1 cells [3]; group 2: 200 μL (300 μmol), no laser irradiation (stated for control groups 2, 3 and 4 together), in 20 days): 25 times
- DLS particle size peak (nm) [4]: 104 nm
- DLS particle size range (nm) [4]: 33-266 nm
- light-to-heat conversion efficiency [5, 8]: 60.4%
- temperature raised by [5, 8]: 24 °C
- temperature reached ([5]; sample No. 2, 10 μM): 54 °C
- light-to-heat conversion efficiency [5, 9]: 61%
- temperature raised by [5, 9]: 32 °C
- temperature reached ([5]; sample No. 3, 20 μM): 62 °C
- light-to-heat conversion efficiency [5, 10]: 60%
- temperature raised by [5, 10]: 47 °C
- temperature reached ([5]; sample No. 4, 40 μM): 77 °C
